Structures can show the parent of a compound that is named as a salt.
What was measured:
Assay in all cases: area under dose-response curve (cell viability) (AUC (arbitrary, % viability x log concentration)); higher = less sensitive (more viable)
Conditions in all cases: 4 days
[1] = system: KASUMI1
Procedure, shortened: (§1)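 After overnight plating on extracellular-matrix-coated 384-well plates, fourteen leukemia cell lines received drugs by robot in duplicate at eight per-drug concentrations spanning 4–5 logs within 10^–12–10^–4 M. CellTiter-Glo was used to read viability 4 days later, and a four-parameter sigmoid was fitted to the mean of the duplicates. The reported figure is the area under this curve.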

[2] = system: SKM1
Procedure, shortened: as §1

[3] = system: U937
Procedure, shortened: as §1

[4] = system: MOLM/13
Procedure, shortened: as §1

[5] = system: HL60
Procedure, shortened: as §1

[6] = system: EOL-1
Procedure, shortened: as §1

[7] = system: OCI-AML2
Procedure, shortened: as §1

[8] = system: OCI-AML3
Procedure, shortened: as §1

[9] = system: MOLM/16
Procedure, shortened: as §1

[10] = system: THP-1
Procedure, shortened: as §1

Row | SMILES | area under dose-response curve [1] | area under dose-response curve [2] | area under dose-response curve [3] | area under dose-response curve [4] | area under dose-response curve [5] | area under dose-response curve [6] | area under dose-response curve [7] | area under dose-response curve [8] | area under dose-response curve [9] | area under dose-response curve [10]
1 | CCCS(=O)(=O)Nc1ccc(F)c(C(=O)c2c[nH]c3ncc(-c4ccc(Cl)cc4)cc23)c1F [PLX-4032] | 750 | 661 | 692 | 643 | 757 | 677 | 618 | 751 | 661 | 738
2 | CCCS(=O)(=O)Nc1ccc(F)c(C(=O)c2c[nH]c3ncc(Cl)cc23)c1F [PLX-4720] | 723 | 597 | 638 | 660 | 769 | 614 | 608 | 763 | 606 | 730
3 | CC(=O)O[C@H]1C(=O)[C@@]2(C)[C@H]([C@H](OC(=O)c3ccccc3)[C@]3(O)C[C@H](OC(=O)[C@H](O)[C@@H](NC(=O)c4ccccc4)c4ccccc4)C(C)=C1C3(C)C)[C@]1(OC(C)=O)CO[C@@H]1C[C@@H]2O [Paclitaxel] | 88 | 99.8 | 6.61 | 2.2 | 56.2 | 2.53 | 3.76 | 133 | 18.5 | 20.5
4 | Cc1[nH]c2ccccc2c1CCNCc1ccc(/C=C/C(=O)NO)cc1 [Panobinostat] | 278 | 318 | 289 | 283 | 307 | 240 | 251 | 310 | 242 | 336
5 | Cc1ccc(Nc2nccc(N(C)c3ccc4c(C)n(C)nc4c3)n2)cc1S(N)(=O)=O [Pazopanib] | 623 | 642 | 581 | 555 | 608 | 517 | 537 | 615 | 644 | 645
6 | Nc1nc2[nH]cc(CCc3ccc(C(=O)N[C@@H](CCC(=O)O)C(=O)O)cc3)c2c(=O)[nH]1 [Pemetrexed] | 638 | 654 | 628 | 647 | 643 | 674 | 628 | 641 | 624 | 632
7 | OC[C@H]1O[C@@H](n2cnc3c2N=CNC[C@H]3O)C[C@@H]1O [Pentostatin] | 656 | 637 | 651 | 627 | 652 | 671 | 629 | 625 | 627 | 632
8 | CC[C@H](C)C(=O)O[C@H]1C[C@H](O)C=C2C=C[C@H](C)[C@H](CC[C@@H](O)C[C@@H](O)CC(=O)O)[C@H]21 [Pravastatin] | 660 | 647 | 668 | 656 | 668 | 691 | 659 | 657 | 619 | 693
9 | CC[C@H](CO)Nc1nc(NCc2ccccc2)c2ncn(C(C)C)c2n1 [R-roscovitine] | 652 | 644 | 658 | 637 | 640 | 707 | 649 | 644 | 608 | 668
10 | COc1cc(F)c(F)c(Nc2ccc(I)cc2F)c1NS(=O)(=O)C1(C[C@H](O)CO)CC1 [RDEA-119] | 406 | 338 | 560 | 544 | 361 | 464 | 291 | 317 | 432 | 500
11 | CO[C@H]1C[C@@H]2CC[C@@H](C)[C@@](O)(O2)C(=O)C(=O)N2CCCC[C@H]2C(=O)O[C@H]([C@H](C)C[C@@H]2CC[C@@H](O)[C@H](OC)C2)CC(=O)[C@H](C)/C=C(\C)[C@@H](O)[C@@H](OC)C(=O)[C@H](C)C[C@H](C)/C=C/C=C/C=C/1C [Rapamycin] | 487 | 434 | 296 | 439 | 544 | 280 | 483 | 556 | 380 | 527
12 | CN1CCC(CNc2ccc3ncc(-c4cccc(OC(F)(F)F)c4)n3n2)CC1 [SGI-1776] | 641 | 564 | 615 | 349 | 686 | 323 | 557 | 611 | 452 | 678
13 | COc1cc(Nc2c(C#N)cnc3cc(OCCCN4CCN(C)CC4)c(OC)cc23)c(Cl)cc1Cl [SKI-606] | 713 | 539 | 590 | 550 | 715 | 475 | 548 | 604 | 452 | 672
14 | CC(C)(C)c1cnc(CSc2cnc(NC(=O)C3CCNCC3)s2)o1 [SNS-032] | 560 | 430 | 469 | 425 | 555 | 419 | 395 | 476 | 474 | 527
15 | CNC(=O)c1cc(Oc2ccc(NC(=O)Nc3ccc(Cl)c(C(F)(F)F)c3)cc2)ccn1 [Sorafenib] | 576 | 644 | 588 | 311 | 707 | 214 | 603 | 674 | 537 | 579
16 | CN[C@@H]1C[C@H]2O[C@@](C)([C@@H]1OC)n1c3ccccc3c3c4c(c5c6ccccc6n2c5c31)C(=O)NC4 [Staurosporine] | 472 | 273 | 344 | 162 | 525 | 107 | 170 | 388 | 291 | 425
17 | CCN(CC)CCNC(=O)c1c(C)[nH]c(/C=C2\C(=O)Nc3ccc(F)cc32)c1C [Sunitinib] | 612 | 635 | 694 | 299 | 707 | 242 | 577 | 662 | 493 | 654
18 | Cc1cc(C(C)Nc2ccccc2)c2nc(N3CCOCC3)cc(=O)n2c1 (stereo not given) [TGX-221] | 669 | 638 | 645 | 675 | 726 | 588 | 624 | 650 | 590 | 717
19 | CN1CCN(c2ccc3nc(-c4c(N)c5c(F)cccc5[nH]c4=O)[nH]c3c2)CC1 [TKI258] | 602 | 544 | 588 | 323 | 666 | 293 | 546 | 659 | 472 | 634
20 | NC(=O)Nc1sc(-c2ccc(F)cc2)cc1C(N)=O [TPCA-1] | 617 | 638 | 598 | 626 | 669 | 492 | 619 | 656 | 481 | 678
21 | CC1(C)CCC(C)(C)c2cc(NC(=O)c3ccc(C(=O)O)cc3)ccc21 [Tamibarotene] | 646 | 412 | 524 | 442 | 603 | 293 | 457 | 297 | 558 | 562
22 | CC/C(=C(\c1ccccc1)c1ccc(OCCN(C)C)cc1)c1ccccc1 [Tamoxifen] | 631 | 636 | 613 | 584 | 664 | 631 | 575 | 601 | 598 | 667
23 | COc1cc2c(N3CCN(C(=O)Nc4ccc(OC(C)C)cc4)CC3)ncnc2cc1OCCCN1CCCCC1 [Tandutinib] | 646 | 653 | 672 | 388 | 729 | 264 | 647 | 684 | 629 | 690
24 | C=CCNC1=C2C[C@@H](C)C[C@H](OC)[C@H](O)[C@@H](C)/C=C(\C)[C@H](OC(N)=O)[C@@H](OC)/C=C\C=C(/C)C(=O)NC(=CC1=O)C2=O [Tanespimycin] | 554 | 404 | 480 | 327 | 586 | 440 | 293 | 484 | 278 | 535
25 | Cn1nnc2c(C(N)=O)ncn2c1=O [Temozolomide] | 662 | 674 | 668 | 624 | 671 | 600 | 597 | 686 | 622 | 688
26 | CO[C@H]1C[C@@H]2CC[C@@H](C)[C@@](O)(O2)C(=O)C(=O)N2CCCC[C@H]2C(=O)O[C@H]([C@H](C)C[C@@H]2CC[C@@H](OC(=O)C(C)(CO)CO)[C@H](OC)C2)CC(=O)[C@H](C)/C=C(\C)[C@@H](O)[C@@H](OC)C(=O)[C@H](C)C[C@H](C)/C=C/C=C/C=C/1C [Temsirolimus] | 512 | 436 | 302 | 445 | 592 | 281 | 477 | 557 | 399 | 543
27 | Cn1cncc1[C@@](N)(c1ccc(Cl)cc1)c1ccc2c(c1)c(-c1cccc(Cl)c1)cc(=O)n2C [Tipifarnib] | 419 | 425 | 313 | 482 | 490 | 255 | 365 | 392 | 208 | 263
28 | CC[C@@]1(O)C(=O)OCc2c1cc1n(c2=O)Cc2cc3c(CN(C)C)c(O)ccc3nc2-1 [Topotecan HCl] | 289 | 269 | 263 | 238 | 296 | 221 | 255 | 269 | 240 | 308
29 | CC(C)C[C@@H](C(=O)N[C@H](C(=O)OC1CCCC1)c1ccccc1)[C@H](O)C(=O)NO [Tosedostat] | 670 | 655 | 462 | 625 | 682 | 545 | 635 | 650 | 452 | 728

— the supplement of paper PMC5752671
